These results are taken from US20090227470A1, “SELECTION OF BIOCATALYSTS FOR CHEMICAL SYNTHESIS” (priority 2005, published 2009).

Series [1] has as its system DH10B-pVSF2-lacZ/pCom10-XylC (benzaldehyde dehydrogenase XylC from Pseudomonas putida). Description: Plate-based assay for β-galactosidase activity, biocat-reporter strain with XylC substrates. The settings on record: plates with chloramphenicol, kanamycin, X-Gal; decane vapor to induce XylC.
Experimental: Cells were plated and grown as above, under decane vapor, followed by incubation at 4° C. and testing for blue colony color as above.
Strain DH10B-pVSF2-lacZ was transformed with pCom10-XylC, streaked on plates containing chloramphenicol, kanamycin, X-Gal and varying concentrations of benzaldehyde or 2-hydroxybenzaldehyde, and grown exposed to decane vapor to induce XylC. Strain DH10B-pVSF2-lacZ, carrying an empty pCom10 vector served as control.
The test system of series [2] is DH10B-pVSF2-tet^r/pCom10-XylC (benzaldehyde dehydrogenase XylC from Pseudomonas putida). Description: Plate-based assay for tetracycline resistance, biocat-selector strain with XylC substrates. The format is cell-based, Escherichia coli. The settings on record: for EC50: Escherichia coli, read-out: substrate concentration required for half-maximal colony diameter, cells containing XylC, selective plates, estimated from inverse plots of FIG. 4. From the text:
Plasmid pCom10-XylC was re-introduced into DH10B-pVSF2-tet^r to produce the desired biocat-selector strain DH10B-pVSF2-tet^r/pCom10-XylC. This strain grew on tetracycline containing selective plates only after addition of benzaldehyde or 2-hydroxybenzaldehyde.

Another series addresses NahR variant (Pseudomonas putida, UniProt P10183, N169D). The conditions noted are these: reported by de Lorenzo and coworkers (Cebolla et al., 1997); cited from earlier work.
The subject of series [3] is DH10B-pVSF2-lacZ (NahR mutant, salicylate promoter Psal fused to lacZa). The conditions noted are these: plates with chloramphenicol and X-Gal, 36 h at 30° C.
Experimental: E. coli DH10B cells harbouring reporter plasmid pVSF2-lacZ were streaked on the plates from a liquid culture that had been grown at 30° C. to an OD600 of 0.1. Cells were grown for 36 h at 30° C. followed by incubation at 4° C. for 24 h after which blue colony color formation was evaluated visually.
For series [4], the system named is DH10B-pVSF2-tet^r (NahR mutant, Psal fused to tetA).
Experimental: (§1) Each plate assay was conducted in triplicate and growth was determined by measuring the colony diameter of 10 solitary colonies for each plate.
(§2) We compared the sensitivity of the selector host for substrates and products by plotting the data of FIGS. 3 and 4 as inverse plots of 1/[colony diameter] vs 1/[compound] and estimating the concentration required for half maximal colony size.
The next series has as its system E. coli cell membranes. Nature of the series: Passive diffusion across the cell envelope. The conditions noted are these: for diffusion rate across E. coli cell membranes: estimated from studies of toluene oxidation by E. coli hosts containing xylMA. Type of series: in vitro ADME. From the text:
This can be considered to be due to differences in the transport of benzaldehyde and benzoate through the E. coli cell envelope. Such transport is believed to involve only passive diffusion^21,22. […].
Thus, substrate influx and product efflux, though different, are quite rapid. […]

Series [5] has as its system DH10B-pVSF2-tet^r (NahR mutant, Psal fused to tetA). Description: microbe, parasite or virus in culture. The conditions noted are these: Escherichia coli, read-out: concentration required for half maximal colony size (colony diameter 50% of maximum), product added extracellularly, selective plates; estimated from inverse plots of FIG. 3.
Experimental: as §1, §2

Several values for one entry are separate records, joined by “and”; a condition that tells them apart may be missing. Equal entries are not always repeated. Where two headings read alike, the source gives them in different places.

NahR variant, sequence (P10183 whole entry N169D, the tested form may be a part): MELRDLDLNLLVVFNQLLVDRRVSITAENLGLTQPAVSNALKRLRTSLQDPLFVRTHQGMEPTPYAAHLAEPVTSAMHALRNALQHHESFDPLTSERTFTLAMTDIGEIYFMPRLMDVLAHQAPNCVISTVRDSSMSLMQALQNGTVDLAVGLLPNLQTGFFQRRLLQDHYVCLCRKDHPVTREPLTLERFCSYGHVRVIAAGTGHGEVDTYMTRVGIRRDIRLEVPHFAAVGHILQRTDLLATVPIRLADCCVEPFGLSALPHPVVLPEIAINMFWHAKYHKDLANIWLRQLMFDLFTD

In the case of `O=Cc1ccccc1O` [2-hydroxybenzaldehyde], the “substrate concentration above which blue colonies were formed” value in series [1] is listed as “above 25 μM”. Besides, in series [2], the EC50 is approximately 0.3 µM.
Consider `O=C(O)c1ccccc1O` [2-hydroxybenzoate], for which the “affinity of the NahR chemosensor, times greater than for benzoate” value on NahR variant is 10. Moreover, in series [3], the “concentration above which blue colonies were detected” value was “higher than 10 μM” and the “saturating concentration for blue colony formation” value was approximately 100 µM. Also, the “fold more effective than the parent compound in triggering tetracycline resistance” value in series [4] (2-hydroxy substituted vs unsubstituted compound) was 15-20. In addition, the EC50 in series [4] (read-out: concentration required for half maximal colony size (colony diameter 50% of maximum), product added extracellularly, selective plates, estimated from inverse plots of FIG. 3) was ~20 µM and 20 µM. The “minimum concentration at which colonies were formed” value in series [4] (selective media with tetracycline) is 10 µM. Moreover, the “concentration at which smaller and also fewer colonies were observed” value in series [4] (selective plates with tetracycline) is 10 µM.
Take `O=Cc1ccccc1` [benzaldehyde]: the “substrate concentration above which blue colonies were formed” value in series [1] is reported as “above 50 μM”. Also, in series [2], the EC50 was approximately 6 µM. Moreover, the “concentration giving homogeneous growth” value in series [2] (host with higher tetracycline tolerance, selective conditions) was approximately 100 µM. In the series with E. coli cell membranes, the “time for intracellular and extracellular concentrations to equilibrate” value was “a few seconds”; the “diffusion rate across E. coli cell membranes” value is listed as “exceed 180 μmol/min/g cell dry mass”.
As to `O=C(O)c1ccccc1` [benzoate], in the series with E. coli cell membranes, the “time for intracellular and extracellular concentrations to equilibrate” value is reported as “one minute”; the “diffusion rate across E. coli cell membranes” value is listed as more than 10 μmol/min/g cell dry mass. Also, the EC50 in series [5] was approximately 400 µM.
